{
  "source": "paper PMC5298231",
  "about": "“The Malaria Parasite's Lactate Transporter PfFNT Is the Target of Antiplasmodial Compounds Identified in Whole Cell Phenotypic Screens” (PLoS Pathogens, 2017)",
  "system": "erythrocytes infected with 3D7 trophozoites",
  "type": "cell-based, Plasmodium falciparum",
  "conditions": "Av 3hr; 6 μM",
  "data": [
    {"compound": "COc1ccc2c(c1)OC(O)(C(F)(F)C(F)(F)F)CC2=O", "note": "(stereo not shown) [MMV007839]", "values": [
      {"measurement": "2-Hydroxyglutarate log2 ratio (+MMV007839/-MMV007839)", "result": -0.6103},
      {"measurement": "2-Ketoglutarate log2 ratio (+MMV007839/-MMV007839)", "result": -0.8232},
      {"measurement": "3-Phosho-D-glycerate log2 ratio (+MMV007839/-MMV007839)", "result": 0.07426},
      {"measurement": "3-Phospho-serine log2 ratio (+MMV007839/-MMV007839)", "result": -0.4035},
      {"measurement": "4-Aminobutanoate log2 ratio (+MMV007839/-MMV007839)", "result": 0.8488},
      {"measurement": "5-Phosphoribosyl-1-pyrophosphate log2 ratio (+MMV007839/-MMV007839)", "result": 0.5077},
      {"measurement": "ADP log2 ratio (+MMV007839/-MMV007839)", "result": -0.7166},
      {"measurement": "AMP log2 ratio (+MMV007839/-MMV007839)", "result": -0.5704},
      {"measurement": "ATLS log2 ratio (+MMV007839/-MMV007839)", "result": -0.2347},
      {"measurement": "ATP log2 ratio (+MMV007839/-MMV007839)", "result": -0.2177},
      {"measurement": "Acetyl-CoA log2 ratio (+MMV007839/-MMV007839)", "result": -0.7235},
      {"measurement": "Acetyl-L-alanine log2 ratio (+MMV007839/-MMV007839)", "result": -0.3599},
      {"measurement": "Adenine log2 ratio (+MMV007839/-MMV007839)", "result": -0.8446},
      {"measurement": "Arginine log2 ratio (+MMV007839/-MMV007839)", "result": 0.2396},
      {"measurement": "Asparagine log2 ratio (+MMV007839/-MMV007839)", "result": -0.1753},
      {"measurement": "Aspartic Acid log2 ratio (+MMV007839/-MMV007839)", "result": -0.3736},
      {"measurement": "CDP log2 ratio (+MMV007839/-MMV007839)", "result": -0.5752},
      {"measurement": "CDP-ethanolamine log2 ratio (+MMV007839/-MMV007839)", "result": 0.02366},
      {"measurement": "CMP log2 ratio (+MMV007839/-MMV007839)", "result": -0.08882},
      {"measurement": "CTP log2 ratio (+MMV007839/-MMV007839)", "result": -0.3119},
      {"measurement": "Cholesteryl sulfate log2 ratio (+MMV007839/-MMV007839)", "result": -0.1335},
      {"measurement": "Citrate log2 ratio (+MMV007839/-MMV007839)", "result": -0.1028},
      {"measurement": "CoA log2 ratio (+MMV007839/-MMV007839)", "result": -0.556},
      {"measurement": "Cyclic AMP log2 ratio (+MMV007839/-MMV007839)", "result": -0.7854},
      {"measurement": "Cytidine log2 ratio (+MMV007839/-MMV007839)", "result": -0.2914},
      {"measurement": "D-Glucono-1-4-lactone log2 ratio (+MMV007839/-MMV007839)", "result": 1.992},
      {"measurement": "DALT log2 ratio (+MMV007839/-MMV007839)", "result": -0.8981},
      {"measurement": "DEVG log2 ratio (+MMV007839/-MMV007839)", "result": -0.08263},
      {"measurement": "DGLA log2 ratio (+MMV007839/-MMV007839)", "result": -0.7349},
      {"measurement": "DLS log2 ratio (+MMV007839/-MMV007839)", "result": -0.6175},
      {"measurement": "Deoxycytidine log2 ratio (+MMV007839/-MMV007839)", "result": 1.594},
      {"measurement": "Dihydroorotate log2 ratio (+MMV007839/-MMV007839)", "result": -1.064},
      {"measurement": "ESFG log2 ratio (+MMV007839/-MMV007839)", "result": -0.07747},
      {"measurement": "EVGG log2 ratio (+MMV007839/-MMV007839)", "result": -0.1694},
      {"measurement": "Erythrose 4-phosphate log2 ratio (+MMV007839/-MMV007839)", "result": -0.2579},
      {"measurement": "FAD log2 ratio (+MMV007839/-MMV007839)", "result": -0.4239},
      {"measurement": "FMN log2 ratio (+MMV007839/-MMV007839)", "result": -0.4985},
      {"measurement": "Farnesyl diphosphate log2 ratio (+MMV007839/-MMV007839)", "result": -0.04123},
      {"measurement": "Folate log2 ratio (+MMV007839/-MMV007839)", "result": -0.3602},
      {"measurement": "Fructose-1-6-bisphosphate log2 ratio (+MMV007839/-MMV007839)", "result": 1.146},
      {"measurement": "Fructose-6-Phosphate log2 ratio (+MMV007839/-MMV007839)", "result": 0.05598},
      {"measurement": "GDP log2 ratio (+MMV007839/-MMV007839)", "result": -1.202},
      {"measurement": "GDP-mannose log2 ratio (+MMV007839/-MMV007839)", "result": -0.4414},
      {"measurement": "GMP log2 ratio (+MMV007839/-MMV007839)", "result": -1.665},
      {"measurement": "GTP log2 ratio (+MMV007839/-MMV007839)", "result": -0.7051},
      {"measurement": "Geranylgeranyl pyrophosphate log2 ratio (+MMV007839/-MMV007839)", "result": -0.6827},
      {"measurement": "Gluconate log2 ratio (+MMV007839/-MMV007839)", "result": -0.02575},
      {"measurement": "Glucose-6-Phosphate log2 ratio (+MMV007839/-MMV007839)", "result": -0.3489},
      {"measurement": "Glutamate log2 ratio (+MMV007839/-MMV007839)", "result": -0.07518},
      {"measurement": "Glutamine log2 ratio (+MMV007839/-MMV007839)", "result": 0.8027},
      {"measurement": "Glutathione disulfide log2 ratio (+MMV007839/-MMV007839)", "result": -0.1266},
      {"measurement": "Glutathione log2 ratio (+MMV007839/-MMV007839)", "result": -0.02749},
      {"measurement": "Glyceraldehyde 3-phosphate log2 ratio (+MMV007839/-MMV007839)", "result": -0.5897},
      {"measurement": "Glycerone phosphate log2 ratio (+MMV007839/-MMV007839)", "result": 0.4029},
      {"measurement": "HLD log2 ratio (+MMV007839/-MMV007839)", "result": -0.9223},
      {"measurement": "HVDD log2 ratio (+MMV007839/-MMV007839)", "result": -1.392},
      {"measurement": "Histidine log2 ratio (+MMV007839/-MMV007839)", "result": 0.6908},
      {"measurement": "Homoserine log2 ratio (+MMV007839/-MMV007839)", "result": 0.249},
      {"measurement": "Hydroxy-L-proline log2 ratio (+MMV007839/-MMV007839)", "result": 0.1081},
      {"measurement": "Hypoxanthine log2 ratio (+MMV007839/-MMV007839)", "result": 0.2683},
      {"measurement": "IDP log2 ratio (+MMV007839/-MMV007839)", "result": 0.1036},
      {"measurement": "IMP log2 ratio (+MMV007839/-MMV007839)", "result": -0.04113},
      {"measurement": "Inosine log2 ratio (+MMV007839/-MMV007839)", "result": 0.2492},
      {"measurement": "Isoleucine log2 ratio (+MMV007839/-MMV007839)", "result": 0.01345},
      {"measurement": "LD log2 ratio (+MMV007839/-MMV007839)", "result": 0.008648},
      {"measurement": "Lactate log2 ratio (+MMV007839/-MMV007839)", "result": 2.632},
      {"measurement": "Leucine log2 ratio (+MMV007839/-MMV007839)", "result": -0.1293},
      {"measurement": "Lysine log2 ratio (+MMV007839/-MMV007839)", "result": 0.8307},
      {"measurement": "Malate log2 ratio (+MMV007839/-MMV007839)", "result": -0.2233},
      {"measurement": "Mannitol log2 ratio (+MMV007839/-MMV007839)", "result": -0.2308},
      {"measurement": "Methionine log2 ratio (+MMV007839/-MMV007839)", "result": -0.1652},
      {"measurement": "Myristic acid log2 ratio (+MMV007839/-MMV007839)", "result": -0.3456},
      {"measurement": "N-Acetyl-glutamate log2 ratio (+MMV007839/-MMV007839)", "result": -0.8123},
      {"measurement": "N-Carbamoyl-L-aspartate log2 ratio (+MMV007839/-MMV007839)", "result": -1.502},
      {"measurement": "NAD+ log2 ratio (+MMV007839/-MMV007839)", "result": 0.03216},
      {"measurement": "NADH log2 ratio (+MMV007839/-MMV007839)", "result": -1.72},
      {"measurement": "NADP+ log2 ratio (+MMV007839/-MMV007839)", "result": -0.3346},
      {"measurement": "Octoluse Bisphosphate log2 ratio (+MMV007839/-MMV007839)", "result": 1.811},
      {"measurement": "Ornithine log2 ratio (+MMV007839/-MMV007839)", "result": -0.1015},
      {"measurement": "Orotate log2 ratio (+MMV007839/-MMV007839)", "result": -1.466},
      {"measurement": "Orotidine 5-phosphate log2 ratio (+MMV007839/-MMV007839)", "result": -1.489},
      {"measurement": "Orotidine log2 ratio (+MMV007839/-MMV007839)", "result": -1.057},
      {"measurement": "PAEF log2 ratio (+MMV007839/-MMV007839)", "result": -1.307},
      {"measurement": "PAVH log2 ratio (+MMV007839/-MMV007839)", "result": -1.929},
      {"measurement": "PD log2 ratio (+MMV007839/-MMV007839)", "result": 0.2119},
      {"measurement": "PDAV log2 ratio (+MMV007839/-MMV007839)", "result": 0.3685},
      {"measurement": "PE log2 ratio (+MMV007839/-MMV007839)", "result": 0.9141},
      {"measurement": "PEE log2 ratio (+MMV007839/-MMV007839)", "result": -0.2135},
      {"measurement": "PHF log2 ratio (+MMV007839/-MMV007839)", "result": 0.05129},
      {"measurement": "PPVQ log2 ratio (+MMV007839/-MMV007839)", "result": -0.3492},
      {"measurement": "PVNF log2 ratio (+MMV007839/-MMV007839)", "result": -0.8559},
      {"measurement": "PVQ log2 ratio (+MMV007839/-MMV007839)", "result": 0.3164},
      {"measurement": "PVQA log2 ratio (+MMV007839/-MMV007839)", "result": -1.408},
      {"measurement": "Pantothenate log2 ratio (+MMV007839/-MMV007839)", "result": -0.2954},
      {"measurement": "Phenylalanine log2 ratio (+MMV007839/-MMV007839)", "result": -0.1326},
      {"measurement": "Phosphoenolpyruvate log2 ratio (+MMV007839/-MMV007839)", "result": 0.2604},
      {"measurement": "Pipecolate log2 ratio (+MMV007839/-MMV007839)", "result": 0.1041},
      {"measurement": "Proline log2 ratio (+MMV007839/-MMV007839)", "result": -0.09895},
      {"measurement": "Pyridoxine log2 ratio (+MMV007839/-MMV007839)", "result": -0.07403},
      {"measurement": "Pyruvate log2 ratio (+MMV007839/-MMV007839)", "result": 1.858},
      {"measurement": "Ribose-5-phosphate log2 ratio (+MMV007839/-MMV007839)", "result": 0.8813},
      {"measurement": "S-Adenosyl-L-homocysteine log2 ratio (+MMV007839/-MMV007839)", "result": -0.314},
      {"measurement": "SDGLA log2 ratio (+MMV007839/-MMV007839)", "result": -0.3844},
      {"measurement": "SFGD log2 ratio (+MMV007839/-MMV007839)", "result": -0.2955},
      {"measurement": "Sedoheptoluse bisphosphate log2 ratio (+MMV007839/-MMV007839)", "result": -0.1481},
      {"measurement": "Sedoheptulose-1/7-phosphate log2 ratio (+MMV007839/-MMV007839)", "result": 0.2199}
    ]}
  ]
}
